Data as given in the supplement of paper PMC10307832.

Tests used:
Assay in all cases: relative viability (nuclei count vs DMSO), 5 days (fraction); higher = more cells survive
[1] = test system: BEN
Outline: (§1)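 Relative viability is defined as nuclei in treated wells over nuclei in vehicle wells. Duplicate plates were run and medians reported. Lung cancer cell lines in 1536-well plates were dosed by pin tool one day after seeding, with one drug or with a fixed anchor-drug dose plus five library-drug doses (not always all listed) in √10 steps, and nuclei were counted after 5 days.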

[2] = test system: NCI-H727
Outline: as §1

[3] = test system: RERF-LC-KJ
Outline: as §1

[4] = test system: NCI-H1944
Outline: as §1

[5] = test system: NCI-H1650
Outline: as §1

[6] = test system: NCI-H2228
Outline: as §1

[7] = test system: NCI-H2405
Outline: as §1

[8] = test system: NCI-H1793
Outline: as §1

[9] = test system: NCI-H1395
Outline: as §1

[10] = test system: LCLC-103H
Outline: as §1

[11] = test system: SK-LU-1
Outline: as §1

[12] = test system: NCI-H2087
Outline: as §1

[13] = test system: NCI-H1437
Outline: as §1

[14] = test system: 201T
Outline: as §1

[15] = test system: NCI-H647
Outline: as §1

[16] = test system: CAL-12T
Outline: as §1

[17] = test system: NCI-H322M
Outline: as §1

[18] = test system: HCC-827
Outline: as §1

[19] = test system: NCI-H3122
Outline: as §1

[20] = test system: LCLC-97TM1
Outline: as §1

[21] = test system: LXF-289
Outline: as §1

**Q.** For Cc1sc2c(c1C)C(c1ccc(Cl)cc1)=N[C@@H](CC(=O)OC(C)(C)C)c1nnc(C)n1-2 [JQ1] + COc1cc2c(Oc3ccc(NC(=O)C4(C(=O)Nc5ccc(F)cc5)CC4)cc3F)ccnc2cc1OCCCN1CCOCC1 [Foretinib] (partner 0.25 µM), which relative viability ([1]; first compound 0.04 µM) is on record?
**A.** 0.482

**Q.** And the relative viability ([1]; first compound 0.1265 µM)?
**A.** 0.529

**Q.** And the relative viability ([1]; first compound 0.4 µM)?
**A.** 0.495

**Q.** What about the relative viability ([1]; first compound 1.265 µM) of the same molecule?
**A.** 0.327

**Q.** And the relative viability ([1]; first compound 4 µM)?
**A.** 0.262

**Q.** And the relative viability ([2]; first compound 0.04 µM)?
**A.** 0.841

**Q.** And the relative viability ([2]; first compound 0.1265 µM)?
**A.** 0.864

**Q.** And the relative viability ([2]; first compound 0.4 µM)?
**A.** 0.537

**Q.** And the relative viability ([2]; first compound 1.265 µM)?
**A.** 0.336

**Q.** And the relative viability ([2]; first compound 4 µM)?
**A.** 0.438

**Q.** What about the relative viability ([3]; first compound 0.04 µM) of the same molecule?
**A.** 0.939

**Q.** What about the relative viability ([3]; first compound 0.1265 µM) of the same molecule?
**A.** 0.88

**Q.** What about the relative viability ([3]; first compound 0.4 µM) of the same molecule?
**A.** 0.942

**Q.** And the relative viability ([3]; first compound 1.265 µM)?
**A.** 0.748

**Q.** And the relative viability ([3]; first compound 4 µM)?
**A.** 0.555

**Q.** And the relative viability ([4]; first compound 0.04 µM)?
**A.** 0.797

**Q.** And the relative viability ([4]; first compound 0.1265 µM)?
**A.** 0.792

**Q.** What about the relative viability ([4]; first compound 0.4 µM) of the same molecule?
**A.** 0.513

**Q.** And the relative viability ([4]; first compound 1.265 µM)?
**A.** 0.441

**Q.** And the relative viability ([4]; first compound 4 µM)?
**A.** 0.425

**Q.** And the relative viability ([5]; first compound 0.04 µM)?
**A.** 0.894

**Q.** And the relative viability ([5]; first compound 0.1265 µM)?
**A.** 0.656

**Q.** And the relative viability ([5]; first compound 0.4 µM)?
**A.** 0.568

**Q.** What about the relative viability ([5]; first compound 1.265 µM) of the same molecule?
**A.** 0.26

**Q.** And the relative viability ([5]; first compound 4 µM)?
**A.** 0.161

**Q.** And the relative viability ([6]; first compound 0.04 µM)?
**A.** 0.806

**Q.** And the relative viability ([6]; first compound 0.1265 µM)?
**A.** 0.766

**Q.** And the relative viability ([6]; first compound 0.4 µM)?
**A.** 0.647

**Q.** What about the relative viability ([6]; first compound 1.265 µM) of the same molecule?
**A.** 0.481

**Q.** And the relative viability ([6]; first compound 4 µM)?
**A.** 0.383

**Q.** And the relative viability ([7]; first compound 0.04 µM)?
**A.** 1.08

**Q.** What about the relative viability ([7]; first compound 0.1265 µM) of the same molecule?
**A.** 1.02

**Q.** What about the relative viability ([7]; first compound 0.4 µM) of the same molecule?
**A.** 1.03

**Q.** And the relative viability ([7]; first compound 1.265 µM)?
**A.** 0.835

**Q.** What about the relative viability ([7]; first compound 4 µM) of the same molecule?
**A.** 0.744

**Q.** And the relative viability ([8]; first compound 0.04 µM)?
**A.** 0.65

**Q.** What about the relative viability ([8]; first compound 0.1265 µM) of the same molecule?
**A.** 0.788

**Q.** And the relative viability ([8]; first compound 0.4 µM)?
**A.** 0.713

**Q.** What about the relative viability ([8]; first compound 1.265 µM) of the same molecule?
**A.** 0.728

**Q.** And the relative viability ([8]; first compound 4 µM)?
**A.** 0.483

**Q.** What about the relative viability ([9]; first compound 0.04 µM) of the same molecule?
**A.** 0.716

**Q.** And the relative viability ([9]; first compound 0.1265 µM)?
**A.** 0.955

**Q.** And the relative viability ([9]; first compound 0.4 µM)?
**A.** 1

**Q.** What about the relative viability ([9]; first compound 1.265 µM) of the same molecule?
**A.** 0.732

**Q.** What about the relative viability ([9]; first compound 4 µM) of the same molecule?
**A.** 0.525

**Q.** What about the relative viability ([10]; first compound 0.04 µM) of the same molecule?
**A.** 0.765

**Q.** What about the relative viability ([10]; first compound 0.1265 µM) of the same molecule?
**A.** 0.6

**Q.** And the relative viability ([10]; first compound 0.4 µM)?
**A.** 0.562

**Q.** What about the relative viability ([10]; first compound 1.265 µM) of the same molecule?
**A.** 0.481

**Q.** What about the relative viability ([10]; first compound 4 µM) of the same molecule?
**A.** 0.301

**Q.** What about the relative viability ([11]; first compound 0.04 µM) of the same molecule?
**A.** 0.848

**Q.** What about the relative viability ([11]; first compound 0.1265 µM) of the same molecule?
**A.** 0.613

**Q.** And the relative viability ([11]; first compound 0.4 µM)?
**A.** 0.787

**Q.** What about the relative viability ([11]; first compound 1.265 µM) of the same molecule?
**A.** 0.306

**Q.** What about the relative viability ([11]; first compound 4 µM) of the same molecule?
**A.** 0.153

**Q.** What about the relative viability ([12]; first compound 0.04 µM) of the same molecule?
**A.** 1.06

**Q.** And the relative viability ([12]; first compound 0.1265 µM)?
**A.** 0.997

**Q.** And the relative viability ([12]; first compound 0.4 µM)?
**A.** 0.766

**Q.** What about the relative viability ([12]; first compound 1.265 µM) of the same molecule?
**A.** 0.518

**Q.** And the relative viability ([12]; first compound 4 µM)?
**A.** 0.479

**Q.** And the relative viability ([13]; first compound 0.04 µM)?
**A.** 1.11

**Q.** What about the relative viability ([13]; first compound 0.1265 µM) of the same molecule?
**A.** 1.23

**Q.** What about the relative viability ([13]; first compound 0.4 µM) of the same molecule?
**A.** 1.03

**Q.** And the relative viability ([13]; first compound 1.265 µM)?
**A.** 0.464

**Q.** What about the relative viability ([13]; first compound 4 µM) of the same molecule?
**A.** 0.384

**Q.** What about the relative viability ([14]; first compound 0.04 µM) of the same molecule?
**A.** 1.02

**Q.** And the relative viability ([14]; first compound 0.1265 µM)?
**A.** 0.704

**Q.** What about the relative viability ([14]; first compound 0.4 µM) of the same molecule?
**A.** 0.514

**Q.** What about the relative viability ([14]; first compound 1.265 µM) of the same molecule?
**A.** 0.343

**Q.** What about the relative viability ([14]; first compound 4 µM) of the same molecule?
**A.** 0.215

**Q.** What about the relative viability ([15]; first compound 0.04 µM) of the same molecule?
**A.** 1.21

**Q.** What about the relative viability ([15]; first compound 0.1265 µM) of the same molecule?
**A.** 0.914

**Q.** And the relative viability ([15]; first compound 0.4 µM)?
**A.** 0.841

**Q.** What about the relative viability ([15]; first compound 1.265 µM) of the same molecule?
**A.** 0.242

**Q.** What about the relative viability ([15]; first compound 4 µM) of the same molecule?
**A.** 0.204

**Q.** And the relative viability ([16]; first compound 0.04 µM)?
**A.** 1.16

**Q.** What about the relative viability ([16]; first compound 0.1265 µM) of the same molecule?
**A.** 0.747

**Q.** And the relative viability ([16]; first compound 0.4 µM)?
**A.** 0.858

**Q.** What about the relative viability ([16]; first compound 1.265 µM) of the same molecule?
**A.** 0.351

**Q.** What about the relative viability ([16]; first compound 4 µM) of the same molecule?
**A.** 0.307

**Q.** What about the relative viability ([17]; first compound 0.04 µM) of the same molecule?
**A.** 0.955

**Q.** What about the relative viability ([17]; first compound 0.1265 µM) of the same molecule?
**A.** 1.15

**Q.** And the relative viability ([17]; first compound 0.4 µM)?
**A.** 0.753

**Q.** And the relative viability ([17]; first compound 1.265 µM)?
**A.** 0.513

**Q.** And the relative viability ([17]; first compound 4 µM)?
**A.** 0.441

**Q.** And the relative viability ([18]; first compound 0.04 µM)?
**A.** 1.1

**Q.** What about the relative viability ([18]; first compound 0.4 µM) of the same molecule?
**A.** 1.14

**Q.** And the relative viability ([18]; first compound 1.265 µM)?
**A.** 1.22

**Q.** And the relative viability ([18]; first compound 4 µM)?
**A.** 0.907

**Q.** And the relative viability ([19]; first compound 0.04 µM)?
**A.** 1.04

**Q.** And the relative viability ([19]; first compound 0.1265 µM)?
**A.** 0.814

**Q.** What about the relative viability ([19]; first compound 0.4 µM) of the same molecule?
**A.** 0.766

**Q.** What about the relative viability ([19]; first compound 1.265 µM) of the same molecule?
**A.** 0.698

**Q.** What about the relative viability ([19]; first compound 4 µM) of the same molecule?
**A.** 0.532

**Q.** What about the relative viability ([20]; first compound 0.04 µM) of the same molecule?
**A.** 0.909

**Q.** What about the relative viability ([20]; first compound 0.1265 µM) of the same molecule?
**A.** 0.949

**Q.** And the relative viability ([20]; first compound 0.4 µM)?
**A.** 0.823

**Q.** And the relative viability ([20]; first compound 1.265 µM)?
**A.** 0.617

**Q.** And the relative viability ([20]; first compound 4 µM)?
**A.** 0.4

**Q.** What about the relative viability ([21]; first compound 0.04 µM) of the same molecule?
**A.** 0.955

**Q.** And the relative viability ([21]; first compound 0.1265 µM)?
**A.** 0.978

**Q.** What about the relative viability ([21]; first compound 0.4 µM) of the same molecule?
**A.** 0.762

**Q.** What about the relative viability ([21]; first compound 1.265 µM) of the same molecule?
**A.** 0.758

**Q.** And the relative viability ([21]; first compound 4 µM)?
**A.** 0.69
